We go through 3 compounds from EPA's ToxValDB 9.5 (doi:10.2903/j.efsa.2013.3143).

In one series the test system is Cyprinodon variegatus. The settings on record: acute; duration: 96 hours; mortality.
The next series deals with Daphnia magna. The settings on record: chronic/long-term; duration: 21 days; reproduction.
Another series concerns Bibionidae. The note with it: chronic/long-term; duration: 28 days; other.
For another series, the system named is Canidae. The note with it: chronic; duration: 1 years; oral; Dog Other; organ weight.
A further series deals with Oncorhynchus mykiss. The settings on record: chronic/long-term; duration: 90 days; development.
Another series deals with Rattus norvegicus. The settings on record: for LD50: acute, oral, mortality.
The next series concerns Hypoaspis aculeifer. The note with it: chronic/long-term; duration: 16 days; mortality.
The test system of another series is Apis mellifera. The settings on record: acute, mortality.
The subject of a further series is Typhlodromus pyri. The series is described as follows: LR50; higher = less toxic. The settings on record: chronic/long-term; duration: 7 days; mortality.

Several values for one entry are separate records, joined by “and”; a condition that tells them apart may be missing. Equal entries are not always repeated. Bounds are passed on as bounds.

Regarding `CNC(=O)c1cc(Cl)cc(C)c1NC(=O)c1cc(Br)nn1-c1ncccc1Cl` [Chlorantraniliprole], the LC50 in the series on Cyprinodon variegatus was over 12 µg/mL; in the series with Tagia sp. (acute, duration: 14 days, mortality), over 1000 mg/kg; with Colinus virginianus (acute, oral, diet, mortality), over 1730 mg/kg-day. For the same compound, the NOEC is 0.00447 mg/L in the series on Daphnia magna; 0.0025 mg/L and 0.005 mg/kg in the series on Bibionidae; 1000 mg/kg in the series with Tagia sp. (chronic/long-term, duration: 56 days, reproduction); 0.11 mg/L in the series with Oncorhynchus mykiss; 100 mg/kg with Hypoaspis aculeifer. Also, the NOAEL is 158 mg/kg-day with Mus musculus (chronic, duration: 18 months, histopathology: nonneoplastic); 278 mg/kg-day in the series on Canidae; 10.1 mg/kg-day with Colinus virginianus (reproduction developmental, reproduction); 156 mg/kg-day in the series with Rattus norvegicus (chronic, duration: 2 years, organ weight); 1200 mg/kg-day in the series on Rattus norvegicus (reproduction developmental, no effects). The LD50 with Colinus virginianus (acute, oral, mortality) was over 2250 mg/kg-day; in the series with Rattus norvegicus it was over 5000 mg/kg-day; in the series with Apis mellifera (duration: 48 hours, oral, unspecified), over 104 µg/piece; in the series on Apis mellifera (duration: 72 hours, dermal), over 4 µg/piece. The compound further showed an LR50 in the series with Typhlodromus pyri of over 750 g/ha.
`CNC(=O)c1cc(Br)[nH]n1` [5-Bromo-N-methyl-1H-pyrazole-3-carboxamide]: the LD50 in the series on Mus musculus (acute, oral, mortality) is over 2000 mg/kg-day.
Consider `Cc1cc(Cl)cc2c(=O)n(C)c(-c3cc(Br)[nH]n3)nc12` [Chlorantraniliprole metabolite (IN-LBA24)], for which, in the series with Rattus norvegicus, the LD50 is over 2000 mg/kg-day.
